For assay [1], the target named is Matrix metalloproteinase-9 (Homo sapiens, UniProt P14780).
Description: The compound was tested for its binding affinity towards 92 kDa gelatinase (Matrix metalloprotease-9)
In another assay the target is Neutrophil collagenase (Homo sapiens, UniProt P22894).
The target of assay [2] is 72 kDa type IV collagenase (Homo sapiens, UniProt P08253).
Description: Binding affinity towards 72 kDa gelatinase (Matrix metalloprotease-2)

One may read the Ki as the equilibrium dissociation constant of an inhibitor or competing ligand from its target.

Chain of 72 kDa type IV collagenase (P08253 whole entry): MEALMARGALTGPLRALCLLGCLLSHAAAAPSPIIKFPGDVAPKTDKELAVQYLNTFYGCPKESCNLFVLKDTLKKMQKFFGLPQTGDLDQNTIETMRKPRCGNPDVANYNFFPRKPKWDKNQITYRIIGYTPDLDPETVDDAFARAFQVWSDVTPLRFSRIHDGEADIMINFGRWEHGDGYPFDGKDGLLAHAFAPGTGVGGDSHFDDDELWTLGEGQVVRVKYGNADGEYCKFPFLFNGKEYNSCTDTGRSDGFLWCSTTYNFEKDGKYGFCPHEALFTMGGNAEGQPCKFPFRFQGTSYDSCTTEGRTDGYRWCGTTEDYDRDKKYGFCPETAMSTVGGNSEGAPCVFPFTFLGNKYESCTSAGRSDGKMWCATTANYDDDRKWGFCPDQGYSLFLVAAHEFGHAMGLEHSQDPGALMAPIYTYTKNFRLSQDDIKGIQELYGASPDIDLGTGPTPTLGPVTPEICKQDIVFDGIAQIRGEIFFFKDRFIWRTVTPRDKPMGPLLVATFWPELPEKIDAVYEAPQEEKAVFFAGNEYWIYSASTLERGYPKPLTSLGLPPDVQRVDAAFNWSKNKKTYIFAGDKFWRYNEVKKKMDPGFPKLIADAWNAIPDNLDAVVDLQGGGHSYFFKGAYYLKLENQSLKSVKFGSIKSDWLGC
Chain of Matrix metalloproteinase-9 (P14780 whole entry): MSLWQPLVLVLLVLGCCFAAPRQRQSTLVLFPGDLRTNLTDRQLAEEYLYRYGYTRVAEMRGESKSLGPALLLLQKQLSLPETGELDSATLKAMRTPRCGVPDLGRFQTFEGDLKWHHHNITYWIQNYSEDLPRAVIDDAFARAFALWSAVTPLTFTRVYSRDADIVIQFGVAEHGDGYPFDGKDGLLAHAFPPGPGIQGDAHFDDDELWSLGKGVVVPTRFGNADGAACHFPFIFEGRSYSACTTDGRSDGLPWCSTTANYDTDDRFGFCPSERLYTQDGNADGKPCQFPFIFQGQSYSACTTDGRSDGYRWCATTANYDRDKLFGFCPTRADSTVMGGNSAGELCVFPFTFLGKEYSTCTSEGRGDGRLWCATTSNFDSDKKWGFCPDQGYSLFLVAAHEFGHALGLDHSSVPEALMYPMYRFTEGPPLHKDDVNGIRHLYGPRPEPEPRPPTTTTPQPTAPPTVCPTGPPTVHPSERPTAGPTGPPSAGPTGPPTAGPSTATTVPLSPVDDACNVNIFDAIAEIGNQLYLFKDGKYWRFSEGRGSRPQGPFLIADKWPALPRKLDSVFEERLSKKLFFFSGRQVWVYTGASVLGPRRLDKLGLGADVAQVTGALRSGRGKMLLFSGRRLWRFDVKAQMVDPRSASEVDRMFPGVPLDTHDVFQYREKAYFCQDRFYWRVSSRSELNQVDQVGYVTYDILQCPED
Chain of Neutrophil collagenase (P22894 whole entry): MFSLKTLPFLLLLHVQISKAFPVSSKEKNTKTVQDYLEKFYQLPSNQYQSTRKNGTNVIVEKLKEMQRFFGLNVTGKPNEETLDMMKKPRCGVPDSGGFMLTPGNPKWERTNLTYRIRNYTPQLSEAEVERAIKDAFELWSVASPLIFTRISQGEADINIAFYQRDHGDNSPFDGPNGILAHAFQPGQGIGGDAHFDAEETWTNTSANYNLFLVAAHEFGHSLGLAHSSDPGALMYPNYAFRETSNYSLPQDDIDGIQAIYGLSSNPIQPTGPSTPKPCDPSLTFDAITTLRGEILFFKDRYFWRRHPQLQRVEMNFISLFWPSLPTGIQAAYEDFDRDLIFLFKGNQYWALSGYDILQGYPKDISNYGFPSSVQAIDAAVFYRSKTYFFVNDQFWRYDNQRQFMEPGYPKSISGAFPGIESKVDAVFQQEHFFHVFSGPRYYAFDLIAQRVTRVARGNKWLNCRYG
Description for Neutrophil collagenase: The compound was tested for its binding affinity towards neutrophil collagenase (Matrix metalloprotease-8)

With `CC(C)C[C@H](CC(=O)NO)C(=O)N[C@H](Cc1ccc2ccccc2c1)C(=O)N[C@@H](C)c1ccccc1`, the Ki came to 6.9 nM in assay [1], 14 nM at Neutrophil collagenase and 13 nM in assay [2].
On to `CNC(=O)[C@@H](Cc1cccc2cccnc12)NC(=O)[C@@H](CC(=O)NO)CC(C)C`, for which the results for the Ki (in assay [1]; at Neutrophil collagenase; in assay [2]) were 1.5 nM, 0.54 nM and 1.3 nM, respectively.
Regarding `CNC(=O)[C@@H](Cc1ccccc1)NC(=O)[C@@H](CC(=O)NO)CC(C)C`, the Ki in assay [1] amounted to 0.96 nM.
For the compound `CNC(=O)[C@@H](Cc1ccc(-c2ccccc2)cc1)NC(=O)[C@@H](CC(=O)NO)CC(C)C`, the Ki is 4.1 nM in assay [1], 2.4 nM on Neutrophil collagenase and 4 nM in assay [2].
On the same counts, the results for `CC(C)C[C@H](CC(=O)NO)C(=O)N[C@@H](Cc1c[nH]c2ccccc12)C(=O)NC1CC1` are 1.2 nM, 0.34 nM and 0.88 nM.
In the same order, the values of `CC(C)C[C@H](CC(=O)NO)C(=O)N[C@@H](Cc1c[nH]c2ccccc12)C(=O)NC1CCCC1` are 3 nM, 1.6 nM and 2.6 nM.
In the same order, the values of `CC(C)C[C@H](CC(=O)NO)C(=O)N[C@@H](Cc1c[nH]c2ccccc12)C(=O)NCCc1ccccn1` are 1.4 nM, 0.49 nM and 0.73 nM.
Turning to `CNC(=O)[C@@H](Cc1csc2ccccc12)NC(=O)[C@@H](CC(=O)NO)CC(C)C`, the Ki in assay [1] stood at 0.83 nM; on Neutrophil collagenase, 0.45 nM; in assay [2], 0.44 nM.
For the compound `CC(C)C[C@H](CC(=O)NO)C(=O)N[C@@H](Cc1c[nH]c2ccccc12)C(=O)NCCCn1ccnc1`, the Ki was determined as 1.1 nM in assay [1], 0.59 nM on Neutrophil collagenase and 1.3 nM in assay [2].
Take `CC(C)C[C@H](CC(=O)NO)C(=O)N[C@@H](Cc1c[nH]c2ccccc12)C(=O)NCc1ccc2c(c1)OCO2`: the Ki in assay [1] came out at 1.7 nM; on Neutrophil collagenase, 3.7 nM; in assay [2] it was 6.9 nM.
In the same order, the values of `CC(C)C[C@H](CC(=O)NO)C(=O)N[C@@H](Cc1c[nH]c2ccccc12)C(=O)N1CCCCC1` are 13 nM, 27 nM and 19 nM.
`CC(C)C[C@H](CC(=O)NO)C(=O)N[C@@H](Cc1c[nH]c2ccccc12)C(=O)NCc1ccncc1`: the Ki in assay [1] is 1.5 nM; at Neutrophil collagenase, 0.29 nM; in assay [2] it was 0.6 nM.
On the same counts, the results for `CC(C)C[C@H](CC(=O)NO)C(=O)N[C@@H](Cc1c[nH]c2ccccc12)C(=O)NCCCN1CCOCC1` are 1.9 nM, 0.39 nM and 0.71 nM.
Take `CC(C)C[C@H](CC(=O)NO)C(=O)N[C@H](Cc1ccncc1)C(=O)NCc1ccccc1`: the Ki in assay [1] was found to be 1.5 nM; on Neutrophil collagenase, 0.96 nM.
`CC(C)C[C@H](CC(=O)NO)C(=O)N[C@@H](Cc1c[nH]c2ccccc12)C(=O)N1CCCC1`: the values for the Ki (in assay [1]; on Neutrophil collagenase; in assay [2]) were 26 nM, 17 nM and 20 nM, respectively.
`CC(C)C[C@H](CC(=O)NO)C(=O)N[C@H](Cc1cccnc1)C(=O)NCc1ccccc1`: the Ki in assay [1] was determined as 2.7 nM; on Neutrophil collagenase it was 0.63 nM.
Regarding `CNC(=O)[C@@H](Cc1cnc2ccccc2c1)NC(=O)[C@@H](CC(=O)NO)CC(C)C`, the Ki in assay [1] was 0.7 nM; at Neutrophil collagenase, 1 nM; in assay [2] it was 1 nM.
Consider `CC(C)C[C@H](CC(=O)NO)C(=O)N[C@H](Cc1ccc(-c2ccccc2)cc1)C(=O)NCCCN1CCOCC1`, for which the Ki amounted to 3.6 nM in assay [1], 6.8 nM at Neutrophil collagenase and 6.7 nM in assay [2].
On the same counts, the results for `CC(C)C[C@H](CC(=O)NO)C(=O)N[C@H](Cc1ccc(-c2ccccc2)cc1)C(=O)N[C@@H](C)c1ccccc1` are 6.3 nM, 13 nM and 25 nM.
On the same counts, the results for `CC(C)C[C@H](CC(=O)NO)C(=O)N[C@@H](Cc1c[nH]c2ccccc12)C(=O)NCc1cccnc1` are 0.78 nM, 0.11 nM and 0.52 nM.
Regarding `CC(C)C[C@H](CC(=O)NO)C(=O)N[C@@H](Cc1c[nH]c2ccccc12)C(=O)N1CCOCC1`, the results for the Ki (in assay [1]; on Neutrophil collagenase; in assay [2]) were 8.7 nM, 6.9 nM and 3.5 nM, respectively.
On the same counts, the results for `CC(C)C[C@H](CC(=O)NO)C(=O)N[C@H](Cc1cccc2ccccc12)C(=O)NCCCN1CCOCC1` are 0.58 nM, 0.3 nM and 0.59 nM.
In the same order, the values of `CNC(=O)[C@@H](CC(C)C)NC(=O)[C@@H](CC(=O)NO)CC(C)C` are 2.5 nM, 0.65 nM and 1.1 nM.
In the same order, the values of `CC(C)C[C@H](CC(=O)NO)C(=O)N[C@@H](Cc1c[nH]c2ccccc12)C(=O)NCc1ccccn1` are 0.68 nM, 0.43 nM and 0.54 nM.
Regarding `CCCCCO[C@H](CC(=O)NO)C(=O)N[C@@H](Cc1c[nH]c2ccccc12)C(=O)NC`, the figures for the Ki (in assay [1]; at Neutrophil collagenase; in assay [2]) were 26 nM, 7.8 nM and 43 nM, respectively.
On the same counts, the results for `CC(C)C[C@H](CC(=O)NO)C(=O)N[C@@H](Cc1c[nH]c2ccccc12)C(=O)N[C@@H](C)c1ccccc1` are 3.7 nM, 0.75 nM and 0.64 nM.
In the same order, the values of `CNC(=O)[C@H](Cc1c[nH]c2ccccc12)N(C)C(=O)[C@@H](CC(=O)NO)CC(C)C` are 42 nM, 21 nM and 17 nM.
In the same order, the values of `CNC(=O)[C@@H](Cc1ccc2ccccc2c1)NC(=O)[C@@H](CC(=O)NO)CC(C)C` are 0.99 nM, 1.3 nM and 0.7 nM.
With `CC(C)C[C@H](CC(=O)NO)C(=O)N[C@H](Cc1ccc(-c2ccccc2)cc1)C(=O)NCCc1ccc(O)cc1`, the Ki worked out at 6.5 nM in assay [1], 13 nM on Neutrophil collagenase and 8.1 nM in assay [2].
Regarding `CC(C)C[C@H](CC(=O)NO)C(=O)N[C@H](Cc1ccc(-c2ccccc2)cc1)C(=O)NCc1ccccc1`, the Ki is 3 nM in assay [1] and 3.6 nM on Neutrophil collagenase.
In the same order, the values of `CC(C)C[C@H](CC(=O)NO)C(=O)N[C@@H](Cc1c[nH]c2ccccc12)C(=O)NCc1nccs1` are 0.9 nM and 0.56 nM.
Consider `CC(C)C[C@H](CC(=O)NO)C(=O)N[C@H](Cc1ccc2ccccc2c1)C(=O)NCc1ccccc1`, for which the Ki was found to be 5.3 nM in assay [1], 7.7 nM on Neutrophil collagenase and 18 nM in assay [2].
In the case of `CNC(=O)[C@H](Cc1cn(C)c2ccccc12)NC(=O)[C@@H](CC(=O)NO)CC(C)C`, the Ki in assay [1] came out at 1.6 nM; at Neutrophil collagenase, 0.66 nM.
Consider `CNC(=O)[C@@H](Cc1ccncc1)NC(=O)[C@@H](CC(=O)NO)CC(C)C`, for which the Ki in assay [1] was determined as 2.8 nM; on Neutrophil collagenase it was 1.7 nM; in assay [2], 0.96 nM.
On to `CC(C)C[C@H](CC(=O)NO)C(=O)N[C@@H](Cc1c[nH]c2ccccc12)C(=O)NCCNC(=O)OCc1ccccc1`, for which the Ki in assay [1] came out at 1.1 nM; at Neutrophil collagenase, 0.94 nM.
On the same counts, the results for `CC(C)CC(CC(=O)NO)C(=O)N[C@@H](Cc1c[nH]c2ccccc12)C(=O)NC1CCc2ccccc21` (single isomer, unassigned) are 30 nM and 24 nM.
On the same counts, the results for `CC(C)C[C@H](CC(=O)NO)C(=O)N[C@@H](Cc1c[nH]c2ccccc12)C(=O)NC1CCc2ccccc21` (single isomer, unassigned) are 100 nM and 130 nM.

These data come from ChEMBL document CHEMBL1131112, “Matrix metalloproteinase inhibitors: a structure-activity study” (J Med Chem, 1998).
